In patent US5456908A, “Polyamine-polyamine and polyamine-protein transport inhibitor conjugates and their use as pharmaceuticals and in research relating to polyamine transport” (priority 1994, dated 1995):
Like-named read-outs stand apart in the source and are kept apart here.

Experiments:
[1] = tested on: MES-SA human cancer cells; experiment: Cellular polyamine content by HPLC, MES-SA; type: cell-based; details: DFMO 1 mM, Poly-SPM 20 μM
Description: (§1) To determine if the cytotoxicity and inhibition of polyamine transport evoked by the polyamine conjugates was,associated with depletion of cell polyamine contents, additional experiments were conducted which used HPLC to measure contents of PUT, SPD, and SPM in human uterine sarcoma and leukemia cells in the presence of poly-SPM, DFMO, and combined treatment with poly-SPM and DFMO. The latter combination was tested to determine if blockade of both transport and synthesis would promote greater decreases in polyamine content than either intervention alone. […] Further studies are planned to obtain further information regarding interactions between these pathways and their suitabilities as pharmacologic targets.

[2] = tested on: cultured pulmonary artery smooth muscle cells treated with DFMO; experiment: 14C-polyamine uptake in DFMO-treated pulmonary artery smooth muscle cells; details: Bos taurus, 24 h, read-out: increase of polyamine uptake relative to control cells
Description: DFMO treatment consisted of the addition of 1 mM of DFMO to the cultures followed by a 24 hour incubation period.
After DFMO treatment and incubation, the respective conjugates were added in amounts ranging from about 0 to 20 μM simultaneously with 3 μM of a specific ^14 C-polyamine and the cells allowed to incubate for 30 minutes. After incubation, the content of cell associated radioactivity was determined.

[3] = tested on: K562/R7 human cancer cells; experiment: Cellular polyamine content by HPLC, K562/R7; type: cell-based; details: DFMO 1 mM, Poly-SPM 20 μM
Description: as §1

[4] = tested on: DX5 human uterine sarcoma cells (MDR-positive); experiment: Cellular content of MDR substrates (vinblastine, Taxol), DX5; type: cell-based; details: DFMO (1 mM)
Description: Complimentary experiments were conducted to determine whether the polyamine uptake inhibitors differentially affected the cytotoxicity and cellular uptake of vinblastine in MDR-negative and MDR-positive uterine sarcoma cells.

DX5 human cancer cells = experiment: Cellular polyamine content by HPLC, DX5; type: cell-based; details: DFMO 1 mM, Poly-SPM 20 μM
Description: as §1

K562 human cancer cells = experiment: Cellular polyamine content by HPLC, K562; type: cell-based; details: DFMO 1 mM, Poly-SPM 20 μM
Description: as §1

[5] = tested on: MES-SA human uterine sarcoma cells; experiment: MTT cytotoxicity assay, MES-SA
Description: (§4) Cytotoxicity was assessed using the MTT assay in MES-SA and DX5 uterine sarcoma cell lines after a 24 hours exposure to ascending concentrations of the putrescine polymeric conjugates (poly-PUT conjugates) or its vehicle.
(§5) Complimentary experiments were conducted to determine whether the polyamine uptake inhibitors differentially affected the cytotoxicity and cellular uptake of vinblastine in MDR-negative and MDR-positive uterine sarcoma cells. […] The MTT assay was used to quantify the IC50 for vinblastine cytotoxicity in MES-SA and DX5 cells in the presence and absence of treatment with 100 μM poly-PUT. The calculation of cytotoxicity in these experiments accounted for the lethality associated with use of the conjugate alone.

[6] = tested on: L1210-MGBGr leukemic cell line deficient in polyamine transport; details: polyamine synthesis blocked by DFMO; Ask et al.; cited from earlier work
[7] = tested on: K567 Human leukemia cells; experiment: Cytotoxicity, K567 leukemia cells; details: DFMO at 1 mM concentration; printed K562
[8] = tested on: DX5 human uterine sarcoma cells (MDR-positive); experiment: MTT cytotoxicity assay, DX5; details: for IC50: Homo sapiens
Description: as §4, §5

[9] = tested on: non-mutant polyamine transport L1210 cells; details: DFMO treatment; Ask et al.; cited from earlier work
[10] = tested on: MES-SA human uterine sarcoma cells; experiment: 14C-polyamine uptake, MES-SA; type: cell-based; details: DFMO (1 mM), 24 hours
Description: (§2) Additional studies were conducted to determine whether MES-SA and DX5 cell lines express a polyamine transport system, and, if so, whether this system(s) was inhibited by the poly-PUT and poly-SPM conjugate. […] In the current studies, ^14 C-SPD was added in concentrations of 3 μM and cells were incubated for 30 minutes at selected temperatures (4° and 37° C). The cells were rinsed with Hanks buffer, digested for 1 hour in 1N NaOH, and cell-associated radioactivity was determined. ^14 C-SPD uptake rate was normalized to protein content. Specific, carrier-mediated polyamine uptake was […] determined at […].
(§3) In many cells, DFMO increases polyamine transport. This is believed to be a compensatory mechanism that protects these cells from polyamine depletion. […] We therefore examined the impact of DFMO on polyamine transport rate and on vinblastine accumulation and cytotoxicity in MES-SA and DX5 cells.

[11] = tested on: MES-SA human uterine sarcoma cells; experiment: Cellular content of MDR substrates (vinblastine, Taxol), MES-SA; type: cell-based; details: DFMO (1 mM)
[12] = tested on: cultured pulmonary artery smooth muscle cells; experiment: Hypoxia-induced fibronectin synthesis; type: cell-based, bovine
From the text: This experiment was effected because hypoxic pulmonary hypertension is accompanied by the deposition of large quantities of fibronectin around pulmonary arteries. Therefore, there is some belief by researchers, including the present inventors, that the increased deposition of this protein may be an important cause of the sustained elevation in pulmonary arterial blood pressure. Also, hypoxia seems to cause pulmonary hypertension by a mechanism related to increased polyamine transport rather than increased de novo polyamine synthesis.

[13] = tested on: R7 cells (MDR-positive variant of K567); experiment: Cytotoxicity, R7 leukemia cells; details: DFMO at 1 mM concentration; MDR-positive variant of K562
[14] = tested on: DX5 human uterine sarcoma cells (MDR-positive); experiment: 14C-polyamine uptake, DX5; type: cell-based; details: DFMO (1 mM), 24 hours
Description: as §2, §3

[15] = tested on: DX5 human uterine sarcoma cells (MDR-positive)
Description: as §4, §5

[16] = tested on: MES-SA human uterine sarcoma cells
Description: as §4, §5

[17] = tested on: cultured pulmonary artery smooth muscle cells; experiment: 14C-polyamine uptake in cultured pulmonary artery smooth muscle cells; type: cell-based, bovine
Description: After this 30 minute period the cell-associated radioactivity was then measured to determine the uptake of polyamine by the cell culture.
Cell associated radioactivity was then measured.

[18] = conjugate 0-20 μM with 3 μM 14C-polyamine, 30 minutes

## NCCCC(N)(C(=O)O)C(F)F (stereo not drawn) [DFMO, α-difluoro-methylornithine]
[1]
  Cellular Polyamine Content, SPD: 6100 pmoles/mg protein
  Cellular Polyamine Content, SPM: 8824 pmoles/mg protein
[2]
  activation at 1000 µM: ~350%
[3]
  Cellular Polyamine Content, SPD: 15809 pmoles/mg protein
  Cellular Polyamine Content, SPM: 15083 pmoles/mg protein
[4]
  3H-Vinblastine Content: 195 ± 8 pmoles/mg protein
DX5 human cancer cells
  Cellular Polyamine Content, SPD: 4191 pmoles/mg protein
  Cellular Polyamine Content, SPM: 6831 pmoles/mg protein
K562 human cancer cells
  Cellular Polyamine Content, SPD: 15791 pmoles/mg protein
  Cellular Polyamine Content, SPM: 17024 pmoles/mg protein
[5]; DFMO at 1 mM concentration
  toxicity to cells: not toxic
[5]; DFMO treatment
  effect of DFMO treatment on the IC50 value for vinblastine: failed to affect
[6]
  cure rate: 33%
[7]
  toxicity to cells: not toxic
[8]; DFMO at 1 mM concentration, MDR-positive variant of MES-SA
  toxicity to cells: not toxic
[8]; DFMO treatment, vinblastine concentrations up to 5 μM
  effect of DFMO treatment on sensitivity to vinblastine: complete resistance
[9]
  increase in survival time: two
[10]
  14C-Polyamine uptake, PUT: 0.67 ± 0.01 pmoles/min/mg protein
  14C-Polyamine uptake, SPD: 7.3 ± .06 pmoles/min/mg protein
[11]
  3H-Vinblastine Content: 840 ± 28 pmoles/mg protein
[12]; Hypoxic
  Fibronectin Synthesis: 0.09 OD/mg protein
[12]; Normoxic
  Fibronectin Synthesis: 0.07 OD/mg protein
[13]
  toxicity to cells: not toxic
[14]
  14C-Polyamine uptake, PUT: 1.1 ± 0.04 pmoles/min/mg protein
  14C-Polyamine uptake, SPD: 1.6 ± .08 pmoles/min/mg protein

## CC[C@]1(O)C[C@@H]2CN(CCc3c([nH]c4ccccc34)[C@@](C(=O)OC)(c3cc4c(cc3OC)N(C)[C@H]3[C@@](O)(C(=O)OC)[C@H](OC(C)=O)[C@]5(CC)C=CCN6CC[C@]43[C@@H]65)C2)C1 [Vinblastine]
[15]
  IC50: 116 nM
[5]; Homo sapiens, MES-SA, read-out: IC50, vinblastine cytotoxicity
  IC50: 5 nM
[16]
  IC50: 7 nM
[8]; read-out: IC50, vinblastine cytotoxicity
  IC50: 600 nM
[8]; read-out: IC50 for vinblastine
  IC50: 500 nM

## COc1ccc(CCN(C)CCCC(C#N)(c2ccc(OC)c(OC)c2)C(C)C)cc1OC (stereo not drawn) [verapamil]
[17]; agents known to inhibit the MDR, data not shown, 30 min
  suppression of polyamine transport: 50-75%

## Spd-BSA: conjugate between bovine serum albumin and spermidine using glutaraldehyde as a coupling agent
[17]; [18]
  uptake of 14C-putrescine: inhibited
  uptake of 14C-spermidine: inhibited
